Assay results: the supplement of paper PMC10307832

Legend:
AZD1208 = compound: N[C@@H]1CCCN(c2c(/C=C3\SC(=O)NC3=O)cccc2-c2ccccc2)C1 [AZD1208]; assay: relative viability (nuclei count vs DMSO), 5 days (fraction); higher = more cells survive
Summary of the method: (§1)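 Vehicle-anchored 1536-well plates of lung cancer cell lines, held overnight at 37 °C, were pinned with five library-drug doses (not always all listed) spaced by √10. No medium change followed over the next 5 days, after which the cells were fixed, permeabilised and Hoechst-stained together and imaged at 4×. Nuclei were counted with MetaXpress, and viability is treated-well nuclei over vehicle-well nuclei, taken as a median across plates. Plates passed with control CV below 25% and at least one doubling.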

XMD14-99 = compound: CN1CCN(CC1)C2=CC(=C(C=C2)NC3=NC(=C(S3)C(=O)C4=C(C=CC=C4Cl)Cl)N)OC [XMD14-99]; assay: as above
Summary of the method: as §1

Cell Line | relative viability (AZD1208; 0.08 µM) | relative viability (AZD1208; 0.253 µM) | relative viability (AZD1208; 0.8 µM) | relative viability (AZD1208; 2.53 µM) | relative viability (AZD1208; 8 µM) | relative viability (XMD14-99; 0.08 µM) | relative viability (XMD14-99; 0.8 µM) | relative viability (XMD14-99; 2.53 µM) | relative viability (XMD14-99; 8 µM)
201T | 1.05 | 0.99 | 0.952 | 0.933 | 0.939 | 0.993 | 0.986 | 0.99 | 0.804
A549 | 0.957 | 0.952 | 0.868 | 0.934 | 0.786 | 0.955 | 0.97 | 0.898 | 0.726
A-427 | 1.1 | 0.972 | 0.895 | 0.962 | 0.747 | 1.05 | 0.939 | 0.866 | 0.643
ABC-1 | 0.965 | 0.966 | 0.856 | 0.923 | 0.899 | 0.99 | 1.03 | 0.964 | 0.727
BEN | 0.954 | 0.84 | 0.629 | 0.709 | 0.537 | 0.969 | 0.988 | 0.961 | 0.801
CAL-12T | 1.01 | 1.13 | 0.967 | 1.01 | 1.05 | 0.974 | 1.01 | 0.933 | 0.692
COR-L23 | 0.969 | 1.12 | 0.965 | 0.99 | 1 | 1.04 | 0.891 | 0.946 | 0.693
COR-L 105 | 0.837 | 0.909 | 0.929 | 0.712 | 0.821 | 0.852 | 1.14 | 0.706 | 0.718
Calu-6 | 1 | 1.1 | 0.968 | 1.04 | 0.989 | 0.937 | 0.932 | 0.936 | 0.785
ChaGo-K-1 | 1.13 | 1.03 | 0.924 | 1.04 | 0.893 | 0.97 | 1.03 | 0.961 | 0.939
EBC-1 | 1.02 | 1.12 | 0.93 | 0.967 | 0.957 | 0.962 | 0.924 | 0.842 | 0.637
EKVX | 0.988 | 1.11 | 0.903 | 1.04 | 0.972 | 0.98 | 0.892 | 0.954 | 0.812
EMC-BAC-2 | 1.23 | 0.95 | 0.917 | 0.949 | 0.754 | 1.01 | 1.03 | 0.889 | 0.645
EPLC-272H | 0.983 | 0.974 | 0.861 | 0.864 | 0.742 | 1.09 | 0.998 | 0.942 | 0.787
H3255 | 1.04 | 1.02 | 0.938 | 0.934 | 0.947 | 0.955 | 0.957 | 0.802 | 0.684
HARA | 0.935 | 1.17 | 0.974 | 0.931 | 0.997 | 0.894 | 0.947 | 0.701 | 0.692
HCC-15 | 1.01 | 1.02 | 0.879 | 0.939 | 0.805 | 1.02 | 1.03 | 0.922 | 0.759
HCC-44 | 1.11 | 0.933 | 1.01 | 1.09 | 1.05 | 1.04 | 0.969 | 1.02 | 0.948
HCC-78 | 1.02 | 1.02 | 0.963 | 1.02 | 1.06 | 0.985 | 0.841 | 0.883 | 0.571

Cell Line | relative viability (AZD1208; 0.08 µM) | relative viability (AZD1208; 0.253 µM) | relative viability (AZD1208; 0.8 µM) | relative viability (AZD1208; 2.53 µM) | relative viability (AZD1208; 8 µM) | relative viability (XMD14-99; 0.08 µM) | relative viability (XMD14-99; 0.8 µM) | relative viability (XMD14-99; 2.53 µM) | relative viability (XMD14-99; 8 µM)
HCC-366 | 1 | 0.996 | 1.03 | 1.01 | 0.993 | 0.988 | 0.996 | 1.01 | 0.894
HCC-827 | 1.08 | 1.08 | 1.05 | 1.08 | 1.01 | 1.06 | 0.972 | 0.961 | 0.881
HOP-62 | 1.09 | 1.07 | 0.941 | 1.02 | 0.944 | 1.01 | 1 | 0.993 | 0.868
IA-LM | 0.951 | 0.983 | 0.855 | 0.875 | 0.989 | 0.947 | 0.86 | 0.758 | 0.472
LC-2-ad | 1.02 | 1.03 | 0.927 | 0.887 | 0.899 | 0.973 | 0.963 | 0.929 | 0.775
LCLC-97TM1 | 0.95 | 0.885 | 0.813 | 0.852 | 0.631 | 0.982 | 1 | 0.828 | 0.571
LCLC-103H | 1.02 | 1.04 | 0.938 | 0.773 | 0.777 | 0.953 | 1.02 | 0.963 | 0.907
LK-2 | 0.882 | 0.718 | 0.63 | 0.493 | 0.42 | 0.914 | 1.04 | 1.09 | 0.913
LOU-NH91 | 1.02 | 0.889 | 0.954 | 0.953 | 0.892 | 1.06 | 0.922 | 0.898 | 0.829
LU99A | 0.974 | 0.963 | 0.921 | 0.878 | 0.807 | 0.982 | 1.03 | 0.896 | 0.8
LXF-289 | 1.05 | 1.06 | 1.01 | 1.03 | 1.12 | 1.02 | 0.964 | 0.976 | 0.889
NCI-H23 | 0.968 | 1.08 | 0.902 | 0.886 | 0.842 | 1.01 | 0.996 | 0.911 | 0.685
NCI-H322M | 0.94 | 0.943 | 0.943 | 0.891 | 1.04 | 0.994 | 0.977 | 0.86 | 0.762
NCI-H358 | 0.904 | 0.78 | 0.798 | 0.862 | 0.729 | 0.959 | 0.895 | 0.851 | 0.57
NCI-H441 | 0.937 | 1.14 | 0.896 | 0.989 | 0.736 | 0.912 | 0.968 | 0.847 | 0.645
NCI-H460 | 0.997 | 1.1 | 0.962 | 0.998 | 1.03 | 1.02 | 0.965 | 0.954 | 0.841
NCI-H520 | 0.938 | 1.17 | 0.943 | 0.908 | 0.754 | 0.903 | 0.96 | 0.932 | 0.818
NCI-H522 | 0.975 | 0.922 | 0.816 | 0.816 | 0.769 | 0.891 | 1.01 | 1.07 | 1
